Among the data in ChEMBL document CHEMBL1201862, “PubChem BioAssay data set” (2004) are IC50 and EC50 values, retold here.

The source made the active and inactive calls.

In assay [1] the target is T1, Neuropeptides B/W receptor type 1 (Homo sapiens, UniProt P48145).
T1 sequence (P48145 whole entry): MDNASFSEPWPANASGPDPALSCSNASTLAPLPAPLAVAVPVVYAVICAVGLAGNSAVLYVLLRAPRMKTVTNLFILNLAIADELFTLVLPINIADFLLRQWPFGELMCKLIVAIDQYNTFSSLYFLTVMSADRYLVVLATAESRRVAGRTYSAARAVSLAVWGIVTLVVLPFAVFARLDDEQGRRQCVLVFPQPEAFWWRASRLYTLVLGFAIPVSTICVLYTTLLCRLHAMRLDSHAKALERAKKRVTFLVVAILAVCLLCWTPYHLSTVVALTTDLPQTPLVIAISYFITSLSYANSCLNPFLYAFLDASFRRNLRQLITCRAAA
The assay can be described thus: human NPBW1 receptor blockade, IC50 – cell-based, fluorescence, dose response, late-stage follow-up (AID 463251). Format: functional.

Assay [2] addresses T1, Neuropeptides B/W receptor type 1. In words: Fluorescence-based dose response cell-based high throughput screening assay to identify antagonists of the G-protein coupled receptor 7 (GPR7). [Related pubchem assays: 1952 (Screening assay (GPR7 antagonists).), 1880 (Summary AID.)]. Format: functional.
Assay [3] concerns the target Melanin-concentrating hormone receptor 1 (Homo sapiens, UniProt Q99705). The assay can be described thus: Fluorescence-based counterscreen for antagonists of the G-protein coupled receptor 7 (GPR7): cell-based high throughput dose response assay to identify antagonists of the melanin-concentrating hormone receptor 1 (MCHR1). Format: functional. A general note: Counterscreens check selectivity or assay interference.

A further assay addresses T2, Bcl-2-like protein 10 (Homo sapiens, UniProt Q9HD36).
T2 sequence (Q9HD36 whole entry): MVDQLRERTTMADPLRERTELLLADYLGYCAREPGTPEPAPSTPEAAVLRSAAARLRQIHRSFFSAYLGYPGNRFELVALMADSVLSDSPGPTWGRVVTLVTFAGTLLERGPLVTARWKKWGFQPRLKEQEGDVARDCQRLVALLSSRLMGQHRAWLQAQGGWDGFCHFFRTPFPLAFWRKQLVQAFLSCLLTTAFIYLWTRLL
The assay can be described thus: Bcl-B/TR3 peptide binding disruption – biochemical, fluorescence polarization, FITC-TR3 peptide, selectivity assay for Bfl-1 inhibitor project, primary screen (AID 748).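 Further: fluorescence polarization from a fluorescein-labelled TR3 peptide binding purified Bcl-B.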

Assay [4] can be described thus: CCR5-tropic HIV-1 fusion blockers – cell-based, CCR5-tropic Env, dose response (AID 2279). Format: functional.
Assay [5] deals with HEK293. In words: Cytotoxicity assay in HEK293 cells. [Related pubchem assays (depositor defined):AID1266, AID1269, AID1270, AID1271, AID1280, AID1281, AID1282, AID1283, AID1287, AID1289, AID1290, AID1291, AID1292, AID1293, AID1294, AID1295, AID1299, AID1302, AID1364, AID1365, AID1366, AID1367, AID1369, AID1370, AID1371, AID1372, AID1373, AID1374, AID1375, AID1384 …. It is filed as functional, cell-based. The following applies: Homo sapiens.

Assay [6] concerns HEK293. The assay can be described thus: TNF Induced NF-kB Luciferase in 293-NF-kB-Luc Stable Cells. [Related pubchem assays: 1266, 1299, 1269, 1373, 1292, 1290, 1302, 1371, 1283, 1270, 1295, 1271, 1375, 1294, 1374, 1281, 1293, 1291, 1289, 1280, 465, 1368, 1364, 1282, 1372, 1365, 1369, 1370, 1367, 1366 ]. It is filed as functional, cell-based. As to conditions: Homo sapiens.
For assay [7], the system named is HEK293. The assay can be described thus: PMA/Ionomycin induced NF-kB luciferase assay in 293- NF-kB-Luc stable cells. [Related pubchem assays: 1299, 1270, 1295, 1375, 1287, 1281, 1293, 1291, 1289, 1280, 465, 1364, 1282, 1372, 1365, 1370, 1367, 1366, 1269, 1373, 1292, 1290, 1302, 1371, 1283, 1271, 1294, 1374, 1368, 1369 ]. It is filed as functional, cell-based. As to conditions: Homo sapiens.

The target in assay [8] is T3, Luciferin 4-monooxygenase (Photinus pyralis, UniProt P08659). In words: In vitro luciferase assay using purified luciferase. [Related pubchem assays: 1299, 1270, 1295, 1375, 1287, 1281, 1293, 1291, 1289, 1280, 465, 1364, 1282, 1372, 1365, 1370, 1367, 1366, 1266, 1373, 1292, 1290, 1302, 1371, 1283, 1271, 1294, 1374, 1368, 1369 ].
In assay [9] the target is T4, Voltage-gated N-type calcium channel alpha-1B subunit/Amyloid beta A4 precursor protein-binding family A member 1 (Homo sapiens, UniProt Q00975+Q02410). In words: disruptors of Mint-PDZ/N-type channel peptide interaction – biochemical, HTRF, set 2, SAR follow-up (AID 434980). Format: functional.
The target of assay [10] is T4, Voltage-gated N-type calcium channel alpha-1B subunit/Amyloid beta A4 precursor protein-binding family A member 1. In words: disruptors of Mint-PDZ/N-type channel peptide interaction – biochemical, HTRF, SAR follow-up (AID 2489). Format: functional.
Assay [11] deals with Induced myeloid leukemia cell differentiation protein Mcl-1 (Homo sapiens, UniProt Q07820). Format: functional.
The target in assay [12] is T3, Luciferin 4-monooxygenase. The assay can be described thus: inhibition of purified Photinus pyralis luciferase – biochemical, luminescence, dose response (AID 1891).
Assay [13] is described as follows: Luminescence Cell-Based Dose Confirmation HTS to Identify Inhibitors of Platelet Dense Granule Release. [Related pubchem assays: 1663 (Primary HTS), 1678 (Summary of Project)]. Format: functional.
The target in assay [14] is NACHT, LRR and PYD domains-containing protein 3 (Homo sapiens, UniProt Q96P20). In words: NALP3 inhibitors in yeast, dose response, luminescent (AID 488799). Format: functional.
Chain of NACHT, LRR and PYD domains-containing protein 3 (Q96P20 whole entry, the tested form may be a part): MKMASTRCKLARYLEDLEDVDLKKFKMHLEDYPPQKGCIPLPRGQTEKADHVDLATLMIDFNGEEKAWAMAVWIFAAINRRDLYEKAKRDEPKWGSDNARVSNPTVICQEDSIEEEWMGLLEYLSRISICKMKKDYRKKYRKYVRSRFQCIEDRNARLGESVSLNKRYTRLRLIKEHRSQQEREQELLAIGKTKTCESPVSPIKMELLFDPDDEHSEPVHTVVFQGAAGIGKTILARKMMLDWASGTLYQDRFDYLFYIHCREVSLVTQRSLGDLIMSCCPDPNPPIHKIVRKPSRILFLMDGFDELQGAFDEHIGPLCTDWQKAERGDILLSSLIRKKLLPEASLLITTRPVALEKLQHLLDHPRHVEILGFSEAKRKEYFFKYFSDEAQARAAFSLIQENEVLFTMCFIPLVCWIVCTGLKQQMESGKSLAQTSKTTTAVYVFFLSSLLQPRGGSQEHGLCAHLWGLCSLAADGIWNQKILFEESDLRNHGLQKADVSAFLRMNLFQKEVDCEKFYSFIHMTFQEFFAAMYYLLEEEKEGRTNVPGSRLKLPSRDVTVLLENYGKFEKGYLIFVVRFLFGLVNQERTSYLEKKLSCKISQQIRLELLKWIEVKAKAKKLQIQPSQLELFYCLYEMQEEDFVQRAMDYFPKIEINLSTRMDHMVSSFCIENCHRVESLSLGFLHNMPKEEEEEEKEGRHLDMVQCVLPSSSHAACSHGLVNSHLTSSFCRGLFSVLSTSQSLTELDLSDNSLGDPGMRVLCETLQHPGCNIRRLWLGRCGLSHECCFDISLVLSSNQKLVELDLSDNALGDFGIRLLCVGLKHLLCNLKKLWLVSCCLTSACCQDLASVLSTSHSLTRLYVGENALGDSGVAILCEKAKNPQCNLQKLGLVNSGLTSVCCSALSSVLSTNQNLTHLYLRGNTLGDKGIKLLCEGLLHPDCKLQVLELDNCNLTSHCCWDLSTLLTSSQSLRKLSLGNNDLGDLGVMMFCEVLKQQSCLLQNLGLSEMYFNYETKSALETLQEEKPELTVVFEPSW

T3 sequence (P08659 whole entry): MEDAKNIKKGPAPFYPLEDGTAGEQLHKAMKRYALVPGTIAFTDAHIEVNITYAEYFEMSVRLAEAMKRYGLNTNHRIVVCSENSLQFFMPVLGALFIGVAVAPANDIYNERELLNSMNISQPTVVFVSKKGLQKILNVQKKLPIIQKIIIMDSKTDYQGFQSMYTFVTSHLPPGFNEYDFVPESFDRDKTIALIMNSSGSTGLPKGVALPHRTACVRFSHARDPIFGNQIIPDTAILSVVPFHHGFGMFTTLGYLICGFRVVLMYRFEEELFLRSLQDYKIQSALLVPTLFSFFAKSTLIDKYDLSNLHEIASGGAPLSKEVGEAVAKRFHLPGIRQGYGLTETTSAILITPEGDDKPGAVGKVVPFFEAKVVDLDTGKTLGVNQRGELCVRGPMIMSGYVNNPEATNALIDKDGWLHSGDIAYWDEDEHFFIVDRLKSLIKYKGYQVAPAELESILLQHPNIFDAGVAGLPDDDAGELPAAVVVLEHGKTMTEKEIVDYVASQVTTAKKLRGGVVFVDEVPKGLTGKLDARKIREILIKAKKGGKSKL
T4 sequence (Q00975 whole entry): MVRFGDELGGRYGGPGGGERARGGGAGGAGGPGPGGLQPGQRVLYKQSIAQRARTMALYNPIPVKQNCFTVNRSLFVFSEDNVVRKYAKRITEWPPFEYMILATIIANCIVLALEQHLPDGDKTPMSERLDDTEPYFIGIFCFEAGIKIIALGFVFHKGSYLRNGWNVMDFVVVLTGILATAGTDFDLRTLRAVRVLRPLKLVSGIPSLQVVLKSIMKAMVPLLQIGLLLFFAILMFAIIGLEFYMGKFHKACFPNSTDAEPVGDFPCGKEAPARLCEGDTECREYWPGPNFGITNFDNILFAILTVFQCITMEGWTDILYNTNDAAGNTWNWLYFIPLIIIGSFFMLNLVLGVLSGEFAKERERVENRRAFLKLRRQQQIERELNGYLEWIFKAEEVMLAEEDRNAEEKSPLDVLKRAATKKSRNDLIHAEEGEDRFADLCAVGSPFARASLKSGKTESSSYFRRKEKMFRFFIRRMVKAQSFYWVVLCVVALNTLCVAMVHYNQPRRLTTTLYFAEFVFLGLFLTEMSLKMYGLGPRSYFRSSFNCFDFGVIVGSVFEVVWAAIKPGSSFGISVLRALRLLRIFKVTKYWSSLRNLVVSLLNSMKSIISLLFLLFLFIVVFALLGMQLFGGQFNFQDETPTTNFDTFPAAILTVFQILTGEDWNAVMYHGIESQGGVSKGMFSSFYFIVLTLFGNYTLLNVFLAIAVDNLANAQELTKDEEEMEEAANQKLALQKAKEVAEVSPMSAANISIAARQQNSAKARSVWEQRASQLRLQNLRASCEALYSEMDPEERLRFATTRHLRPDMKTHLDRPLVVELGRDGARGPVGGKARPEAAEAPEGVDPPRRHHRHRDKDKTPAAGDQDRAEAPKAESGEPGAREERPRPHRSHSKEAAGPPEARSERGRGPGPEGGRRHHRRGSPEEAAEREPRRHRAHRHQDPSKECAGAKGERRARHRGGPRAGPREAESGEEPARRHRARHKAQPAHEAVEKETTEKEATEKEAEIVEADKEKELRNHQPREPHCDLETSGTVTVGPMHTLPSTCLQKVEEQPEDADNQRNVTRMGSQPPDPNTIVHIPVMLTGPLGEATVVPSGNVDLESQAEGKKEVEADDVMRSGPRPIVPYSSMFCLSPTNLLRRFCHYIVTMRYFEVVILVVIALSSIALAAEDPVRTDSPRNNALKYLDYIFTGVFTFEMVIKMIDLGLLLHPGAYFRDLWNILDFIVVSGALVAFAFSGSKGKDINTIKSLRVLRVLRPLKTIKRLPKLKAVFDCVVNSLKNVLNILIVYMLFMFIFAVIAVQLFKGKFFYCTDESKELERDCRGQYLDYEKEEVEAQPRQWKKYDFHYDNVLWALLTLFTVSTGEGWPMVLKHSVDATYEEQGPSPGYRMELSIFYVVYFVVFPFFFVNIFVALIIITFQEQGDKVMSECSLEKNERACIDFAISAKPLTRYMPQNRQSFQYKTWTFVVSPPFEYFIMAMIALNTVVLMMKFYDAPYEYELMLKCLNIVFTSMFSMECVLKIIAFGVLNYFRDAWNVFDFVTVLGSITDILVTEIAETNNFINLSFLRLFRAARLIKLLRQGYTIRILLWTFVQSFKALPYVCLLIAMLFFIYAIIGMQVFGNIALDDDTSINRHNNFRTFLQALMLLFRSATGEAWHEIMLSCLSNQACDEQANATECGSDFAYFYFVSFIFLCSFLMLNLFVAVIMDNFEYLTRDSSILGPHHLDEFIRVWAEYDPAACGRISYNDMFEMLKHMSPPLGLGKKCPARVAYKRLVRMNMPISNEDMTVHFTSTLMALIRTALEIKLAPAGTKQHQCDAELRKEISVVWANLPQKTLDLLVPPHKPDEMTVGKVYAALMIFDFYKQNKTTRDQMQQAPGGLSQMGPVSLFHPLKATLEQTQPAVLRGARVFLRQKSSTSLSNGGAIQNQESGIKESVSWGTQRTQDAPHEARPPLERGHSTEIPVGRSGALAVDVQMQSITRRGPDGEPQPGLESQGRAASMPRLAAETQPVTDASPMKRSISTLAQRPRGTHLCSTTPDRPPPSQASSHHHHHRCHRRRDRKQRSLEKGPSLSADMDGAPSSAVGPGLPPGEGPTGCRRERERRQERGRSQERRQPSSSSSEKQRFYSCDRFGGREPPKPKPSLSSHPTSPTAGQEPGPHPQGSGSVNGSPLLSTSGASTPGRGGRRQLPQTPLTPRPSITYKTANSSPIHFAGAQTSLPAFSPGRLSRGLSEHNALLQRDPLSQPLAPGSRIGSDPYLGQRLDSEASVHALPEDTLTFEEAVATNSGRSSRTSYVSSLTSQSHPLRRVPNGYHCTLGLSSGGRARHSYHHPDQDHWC
T4 sequence (Q02410 whole entry): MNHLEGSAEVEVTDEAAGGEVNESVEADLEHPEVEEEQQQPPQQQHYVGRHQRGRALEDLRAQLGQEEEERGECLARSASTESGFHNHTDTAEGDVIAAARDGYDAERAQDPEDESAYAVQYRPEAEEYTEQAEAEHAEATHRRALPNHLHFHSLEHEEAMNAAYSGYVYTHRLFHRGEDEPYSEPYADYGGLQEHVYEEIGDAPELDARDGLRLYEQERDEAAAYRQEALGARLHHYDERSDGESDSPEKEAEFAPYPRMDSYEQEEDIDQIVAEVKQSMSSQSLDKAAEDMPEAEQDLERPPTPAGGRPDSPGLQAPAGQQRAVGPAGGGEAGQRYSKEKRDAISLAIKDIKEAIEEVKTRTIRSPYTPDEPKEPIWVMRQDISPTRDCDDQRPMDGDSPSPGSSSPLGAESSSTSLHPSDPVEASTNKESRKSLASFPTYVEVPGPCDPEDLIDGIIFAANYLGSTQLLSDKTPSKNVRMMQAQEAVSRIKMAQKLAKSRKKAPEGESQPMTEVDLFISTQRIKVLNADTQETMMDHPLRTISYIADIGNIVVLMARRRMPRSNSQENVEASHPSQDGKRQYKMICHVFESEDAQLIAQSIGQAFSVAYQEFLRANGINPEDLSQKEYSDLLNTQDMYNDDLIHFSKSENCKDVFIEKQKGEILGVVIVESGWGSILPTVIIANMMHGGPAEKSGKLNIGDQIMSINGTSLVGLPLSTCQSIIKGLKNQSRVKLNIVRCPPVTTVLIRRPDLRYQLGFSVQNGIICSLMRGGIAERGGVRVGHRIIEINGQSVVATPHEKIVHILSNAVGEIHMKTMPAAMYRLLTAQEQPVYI
Chain of Melanin-concentrating hormone receptor 1 (Q99705 whole entry): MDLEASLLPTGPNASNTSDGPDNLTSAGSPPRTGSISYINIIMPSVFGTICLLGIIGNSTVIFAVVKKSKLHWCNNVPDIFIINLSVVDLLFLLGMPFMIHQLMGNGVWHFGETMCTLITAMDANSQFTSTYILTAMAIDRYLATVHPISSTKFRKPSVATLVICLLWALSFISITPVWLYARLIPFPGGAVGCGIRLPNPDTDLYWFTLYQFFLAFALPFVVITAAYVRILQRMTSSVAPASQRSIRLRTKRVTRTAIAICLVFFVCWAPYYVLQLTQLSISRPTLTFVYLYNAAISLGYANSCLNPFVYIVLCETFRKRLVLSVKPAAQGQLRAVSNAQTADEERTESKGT

Turning to `CCOc1ccc(CCOc2c(Cl)cnn(-c3ccccc3)c2=O)cc1OCC`, in assay [1], the IC50 is > 20 µM (inactive).
Turning to `CN(C)C1=NC[C@H](Cc2ccccc2)N1CC1CCC(C(C)(C)C)CC1` (stereo not given in full), the values for the IC50 in assay [2] and in assay [3] were 7.86 µM (active) and 10.6 µM (not active), respectively.
For the molecule `CC(=O)C1=C(O)C(=O)N(Cc2ccccc2)C1c1ccco1` (stereo not given), on Bcl-2-like protein 10, the IC50 was > 100 µM (inactive).
`COc1ccc(S(=O)(=O)Nc2ccccc2C(=O)Nc2nc(-c3ccc(F)cc3)cs2)cc1OC`: in [4], the IC50 is 4.41 µM (active).
With `Cc1oc2cc3c(C(=O)OCCN(C)C)c(C)oc3cc2c1C(=O)OCCN(C)C`, the EC50 was 13.9 µM (inactive) with HEK293 [5], 0.11 µM (active) in the assay with HEK293 [6], 0.781 µM (active) in the assay on HEK293 [7] and > 8 µM (not active) in assay [8].
In the case of `COc1ccc(CNC(=O)COC(=O)c2cccc3ccccc23)cc1`, the figures for the concentration for half-maximal inhibition (IC50) in assay [9] and in assay [10] were 26.4 µM (active) and > 56.8 µM (inactive), respectively.
As for `Oc1c(/C=N/c2ccccn2)sc2ccccc12`, the IC50 was 1.64 µM (active) in assay [11] and 10.2 µM (active) in assay [14]. Besides, the EC50 in assay [12] was 1.8 µM (active); in assay [13], 11.5 µM (active).

The term IC50 denotes the concentration that gives 50% inhibition. By EC50 is commonly meant the midpoint of the concentration-response curve.
